Experimental data from ChEMBL document CHEMBL1157109, “Differentiating and apoptotic dose-dependent effects in (-)-alpha-bisabolol-treated human endothelial cells” (2010).
Calls of active or inactive are those of the source. The calls are words filed in the database; no cut-off is given here.

Experiments:
[1] = test system: HUVEC; test: Cytotoxicity against HUVEC at 0.35 uM after 72 hrs by trypan blue dye exclusion test relative to control; format: functional, Homo sapiens
[2] = test system: HUVEC; test: Induction of apoptosis in HUVEC assessed as down-regulation of Bcl2 protein level at 5 uM after 0.5 hr by Western blot analysis; format: functional, cell-based; conditions: Homo sapiens
[3] = test system: HUVEC; test: Cytotoxicity against HUVEC assessed as change in cell number at 25 uM after 72 hrs by trypan blue dye exclusion test; format: functional, cell-based; conditions: Homo sapiens
[4] = test system: HUVEC; test: Induction of apoptosis in HUVEC assessed as cytochrome C release at 5 uM after 24 hrs by Western blot analysis; format: functional, cell-based; conditions: Homo sapiens
[5] = test system: HUVEC; test: Antiangiogenic activity in HUVEC assessed as decrease in cell migration at 0.25 uM after 4 hrs in the presence of FGF2 relative to control; format: functional, cell-based; conditions: Homo sapiens
[6] = test system: HUVEC; test: Angiogenic activity against HUVEC assessed as organization of cells in a capillary like structure at 0.25 uM after 4 hrs; format: functional, cell-based; conditions: Homo sapiens
[7] = test system: HUVEC; test: Induction of apoptosis in HUVEC assessed as procaspase3 activation at 0.25 uM after 4 hrs by Western blot analysis; format: functional, cell-based; conditions: Homo sapiens
[8] = test system: HUVEC; test: Antiangiogenic activity against HUVEC assessed as inhibition of capillary tube organization at 0.5 uM after 4 hrs; format: functional, cell-based; conditions: Homo sapiens
[9] = test system: HUVEC; test: Induction of apoptosis in HUVEC assessed as procaspase3 activation at 5 uM after 4 hrs by Western blot analysis; format: functional, cell-based; conditions: Homo sapiens
[10] = test system: HUVEC; test: Cytotoxicity against HUVEC at 0.15 uM after 72 hrs by trypan blue dye exclusion test relative to control; format: functional, Homo sapiens
[11] = test system: HUVEC; test: Induction of apoptosis in HUVEC assessed as procaspase3 activation at 5 uM after 24 hrs by Western blot analysis; format: functional, cell-based; conditions: Homo sapiens
[12] = test system: HUVEC; test: Angiogenic activity against HUVEC assessed as organization of cells in a capillary like structure at 0.1 uM after 4 hrs; format: functional, cell-based; conditions: Homo sapiens
[13] = test system: HUVEC; test: Cytotoxicity against HUVEC at 0.5 uM after 72 hrs by trypan blue dye exclusion test relative to control; format: functional, Homo sapiens
[14] = test system: HUVEC; test: Induction of apoptosis in HUVEC assessed as cytochrome C release at 5 uM after 4 hrs by Western blot analysis; format: functional, cell-based; conditions: Homo sapiens
[15] = test system: HUVEC; test: Cytotoxicity against HUVEC at 0.25 uM after 72 hrs by trypan blue dye exclusion test relative to control; format: functional, Homo sapiens
[16] = test system: HUVEC; test: Induction of apoptosis in HUVEC assessed as effect on bax protein level after 1 hr by Western blot analysis; format: functional, cell-based; conditions: Homo sapiens
[17] = test system: HUVEC; test: Cytotoxicity against HUVEC at 5 uM after 6 hrs by Trypan blue dye exclusion test; format: functional, Homo sapiens

With `CC(C)=CCC[C@](C)(O)[C@@H]1CC=C(C)CC1` [LEVOMENOL] the Activity [1] was 82%, the Activity [2] was “Active” and the Activity [3] was “inactive”. For the same compound, the Activity [4] was “Active”, the Activity [5] was “Active” and the Activity [6] was “Active”. The Activity [7] was “inactive”, the Activity [8] was “Active” and the Activity [9] was “Active”. The Activity [10] was 65%, the Activity [11] was “Active” and the Activity [12] was “Active”. For the same compound, the Activity [13] was 90%, the Activity [14] was “Active” and the Activity [15] was 78%. For the same compound, the Activity [16] was “inactive” and the Activity [17] was >60%.
